Source: ChEMBL document CHEMBL2321696, “Azaindole-Based Inhibitors of Cdc7 Kinase: Impact of the Pre-DFG Residue, Val 195” (ACS Med Chem Lett, 2013)

Target: Glycogen synthase kinase-3 beta (Homo sapiens, UniProt P49841)
Experiment: Inhibition of human recombinant GSK3beta

Chain of Glycogen synthase kinase-3 beta (P49841 whole entry): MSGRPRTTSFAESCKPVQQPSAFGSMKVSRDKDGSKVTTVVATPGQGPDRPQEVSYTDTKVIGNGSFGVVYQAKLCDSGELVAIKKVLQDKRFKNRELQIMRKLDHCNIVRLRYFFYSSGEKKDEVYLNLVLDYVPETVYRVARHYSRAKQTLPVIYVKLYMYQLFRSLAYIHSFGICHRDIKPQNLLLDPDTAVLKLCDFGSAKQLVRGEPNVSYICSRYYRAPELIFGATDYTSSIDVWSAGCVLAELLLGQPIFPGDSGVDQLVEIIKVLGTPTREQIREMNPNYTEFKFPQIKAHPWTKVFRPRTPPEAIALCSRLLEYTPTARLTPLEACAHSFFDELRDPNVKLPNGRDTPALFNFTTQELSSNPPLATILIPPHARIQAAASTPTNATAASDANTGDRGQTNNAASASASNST

Ki [nM]	Compound
58	Clc1cc(-c2c[nH]c3ncccc23)cc(NC2CCCCC2)n1

Target: Cell division cycle 7-related protein kinase (Homo sapiens, UniProt O00311)
Experiment: Inhibition of human Cdc7 using biotin-C6linker-TPSDSLIYDDGLS as substrate after 1 hr

Chain of Cell division cycle 7-related protein kinase (O00311 whole entry): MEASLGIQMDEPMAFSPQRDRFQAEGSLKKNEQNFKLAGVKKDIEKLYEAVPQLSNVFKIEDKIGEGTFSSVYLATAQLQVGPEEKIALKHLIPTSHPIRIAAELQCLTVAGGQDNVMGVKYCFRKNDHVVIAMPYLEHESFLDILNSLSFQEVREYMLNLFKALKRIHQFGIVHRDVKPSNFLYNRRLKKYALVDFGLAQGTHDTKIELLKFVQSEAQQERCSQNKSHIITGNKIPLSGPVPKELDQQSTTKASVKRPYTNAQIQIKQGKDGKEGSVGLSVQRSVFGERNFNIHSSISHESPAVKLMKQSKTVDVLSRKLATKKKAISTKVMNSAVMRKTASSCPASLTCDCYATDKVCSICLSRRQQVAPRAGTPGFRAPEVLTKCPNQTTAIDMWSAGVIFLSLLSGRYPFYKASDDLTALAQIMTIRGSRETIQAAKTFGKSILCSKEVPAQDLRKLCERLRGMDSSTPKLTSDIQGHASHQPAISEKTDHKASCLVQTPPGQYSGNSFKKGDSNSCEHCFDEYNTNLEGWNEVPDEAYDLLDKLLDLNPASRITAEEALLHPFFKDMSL

Compound	Ki [nM]
O=c1cc(-c2c[nH]c3ncccc23)cc(NC2CCCCC2)[nH]1	0.28
NC(=O)c1cc(-c2c[nH]c3ncccc23)cc(N[C@H]2CC[C@H](O)CC2)n1	67
c1cnc2[nH]cc(-c3ccnc(NC4CCCCC4)c3)c2c1	8.7
O[C@H]1CC[C@H](Nc2cc(-c3c[nH]c4ncccc34)cc(F)n2)CC1	1.7
N[C@H]1CC[C@H](Nc2cc(-c3c[nH]c4ncccc34)cc(F)n2)CC1	3.4

More lines, now with the values ahead:

Ki [nM]	Compound
7.7	N#Cc1cc(-c2c[nH]c3ncccc23)cc(NC2CCCCC2)n1
1.4	N#Cc1cc(-c2c[nH]c3ncccc23)cc(NCc2ccccc2)n1
5.5	N#Cc1cc(-c2c[nH]c3ncccc23)cc(N[C@H]2CC[C@H](O)CC2)n1
0.9	Clc1cc(-c2c[nH]c3ncccc23)cc(NC2CCCCC2)n1
13	Cc1cc(-c2c[nH]c3ncccc23)cc(NC2CCCCC2)n1
15	Cc1cc(-c2c[nH]c3ncccc23)cc(NCc2ccccc2)n1
27	Cc1cc(-c2c[nH]c3ncccc23)cc(N[C@H]2CC[C@H](O)CC2)n1
3.2	Fc1cc(-c2c[nH]c3ncccc23)cc(NC2CCCCC2)n1
